In general, inhibition refers to the share of the control response that was lost under treatment.

Structures are written as SMILES.

This experiment relates to TNF-α. Briefly: Cell-based TNF-α inhibition assay (LPS-induced PBMCs, Meso Scale). Particulars: PBMC, PBMCs pretreated 1 h, LPS 100 ng/mL 18-24 h, percentage of stimulated DMSO control; for inhibition at 0.1 µM: compound concentration 0.1 μM; for inhibition at 1 µM: compound concentration 1 μM. Here is the method:
Example B1. Cell-Based TNF-α Inhibition Assay
Frozen primary blood mononuclear cells (PBMCs) were quick thawed, washed once with RPMI 1640 media supplemented with 10% fetal bovine serum, 1% penicillin, and 1% streptomycin, and plated in a 96 well plate at 200,000 cells per well. The cells were pretreated with DMSO only as a control or a compound for 1 h, and then induced with LPS (lipopolysaccharide) (100 ng/mL) for 18-24 h. The supernatant was analyzed for TNF-α using the Meso Scale assay. Compound activity was determined as a percentage of the stimulated DMSO control. The results are summarized in Table 1, where A represents a percent inhibition value ≥60%; B represents a percent inhibition value <60% and ≥40%; C represents a percent inhibition value <40% and ≥20%; and D represents a single percent inhibition value <20%.

As for `CCOc1cc([C@@H](CS(C)(=O)=O)N2C(=O)c3cccc(NCC(=O)N4CCN(CCCCC(=O)N[C@H](C(=O)N5C[C@H](O)C[C@H]5C(=O)NCc5ccc(-c6scnc6C)cc5)C(C)(C)C)CC4)c3C2=O)ccc1OC` [Compound A66, (2S,4R)-1-[(2S)-2-(5-{4-[2-({2-[(1S)-1-(3-Ethoxy-4-methoxyphenyl)-2-methanesulfonylethyl]-1,3-dioxo-2,3-dihydro-1H-isoindol-4-yl}amino)acetyl]piperazin-1-yl}pentan-amido)-3,3-dimethylbutanoyl]-4-hydroxy-N-{[4-(4-methyl-1,3-thiazol-5-yl)phenyl]methyl}-pyrrolidine-2-carboxamide], the inhibition at 0.1 µM lay within 40 to 60% and the inhibition at 1 µM is at least 60%.

For the compound `CCOc1cc([C@@H](CS(C)(=O)=O)N2C(=O)c3cccc(NC(=O)CCCCCN4CCN(CC(=O)Nc5ccc6c(C7CCC(=O)NC7=O)nn(C)c6c5)CC4)c3C2=O)ccc1OC` (stereo partly drawn) [Compound A78, 6-[4-({[3-(2,6-Dioxopiperidin-3-yl)-1-methyl-1H-indazol-6-yl]carbamoyl}-methyl)piperazin-1-yl]-N-{2-[(1S)-1-(3-ethoxy-4-methoxyphenyl)-2-methanesulfonylethyl]-1,3-dioxo-2,3-dihydro-1H-isoindol-4-yl}hexanamide], the inhibition at 0.1 µM was at least 60% and the inhibition at 1 µM was at least 60%.

For `CCOc1cc([C@@H](CS(C)(=O)=O)N2C(=O)c3cccc(CCCCCCCCCCC(=O)N[C@H](C(=O)N4C[C@H](O)C[C@H]4C(=O)NCc4ccc(-c5scnc5C)cc4)C(C)(C)C)c3C2=O)ccc1OC` [Compound A62, (2S,4R)-1-[(2S)-2-(11-{2-[(1S)-1-(3-Ethoxy-4-methoxyphenyl)-2-methanesulfonylethyl]-1,3-dioxo-2,3-dihydro-1H-isoindol-4-yl}undecanamido)-3,3-dimethylbutanoyl]-4-hydroxy-N-{[4-(4-methyl-1,3-thiazol-5-yl)phenyl]methyl}pyrrolidine-2-carboxamide], the inhibition at 0.1 µM is at least 60% and the inhibition at 1 µM is at least 60%.

As for `CCOc1cc([C@@H](CS(C)(=O)=O)N2C(=O)c3cccc(NC(=O)CCCCCCNCc4ccc(OCc5scc6c5CN([C@H]5CCC(=O)NC5=O)C6=O)cc4)c3C2=O)ccc1OC` [Compound A38, 7-((4-((5-((S)-2,6-Dioxopiperidin-3-yl)-4-oxo-5,6-dihydro-4H-thieno[3,4-c]pyrrol-1-yl)methoxy)benzyl)amino)-N-(2-((S)-1-(3-ethoxy-4-methoxyphenyl)-2-(methylsulfonyl)ethyl)-1,3-dioxoisoindolin-4-yl)heptanamide], the inhibition at 0.1 µM is at least 60%.

For `CCOc1cc([C@@H](CS(C)(=O)=O)N2C(=O)c3cccc(NC(=O)CCCCCN4CCN(CC(=O)Nc5ccc(C6CCC(=O)NC6=O)cc5)CC4)c3C2=O)ccc1OC` (stereo partly drawn) [Compound A83, 6-[4-({[4-(2,6-Dioxopiperidin-3-yl)phenyl]carbamoyl}methyl)piperazin-1-yl]-N-{2-[(1S)-1-(3-ethoxy-4-methoxyphenyl)-2-methanesulfonylethyl]-1,3-dioxo-2,3-dihydro-1H-isoindol-4-yl}hexanamide], the inhibition at 0.1 µM is at least 60% and the inhibition at 1 µM was at least 60%.

Take `CCOc1cc([C@@H](CS(C)(=O)=O)N2C(=O)c3cccc(NC(=O)CCCCCCOc4cc(-c5scnc5C)ccc4CNC(=O)[C@@H]4C[C@@H](O)CN4C(=O)[C@@H](NC(C)=O)C(C)(C)C)c3C2=O)ccc1OC` [Compound A76, (2S,4R)-1-[(2S)-2-Acetamido-3,3-dimethylbutanoyl]-N-[(2-{[6-({2-[(1S)-1-(3-ethoxy-4-methoxyphenyl)-2-methanesulfonylethyl]-1,3-dioxo-2,3-dihydro-1H-isoindol-4-yl}-carbamoyl)hexyl]oxy}-4-(4-methyl-1,3-thiazol-5-yl)phenyl)methyl]-4-hydroxypyrrolidine-2-carboxamide]: the inhibition at 0.1 µM was 40 to 60% and the inhibition at 1 µM was at least 60%.

For the compound `CCOc1cc([C@@H](CS(C)(=O)=O)N2C(=O)c3cccc(NC(=O)CCCCCCCCCN4CCN(CC(=O)Nc5ccc6c(C7CCC(=O)NC7=O)nn(C)c6c5)CC4)c3C2=O)ccc1OC` (stereo partly drawn) [Compound A79, 10-[4-({[3-(2,6-Dioxopiperidin-3-yl)-1-methyl-1H-indazol-6-yl]carbamoyl}-methyl)piperazin-1-yl]-N-{2-[(1S)-1-(3-ethoxy-4-methoxyphenyl)-2-methanesulfonylethyl]-1,3-dioxo-2,3-dihydro-1H-isoindol-4-yl}decanamide], the inhibition at 0.1 µM is at least 60% and the inhibition at 1 µM is at least 60%.

For the compound `O=C1CCC(N2Cc3c(cc(F)cc3C3CCN(CCCCCCCCCOc4cc(C(=O)Nc5c(Cl)cncc5Cl)ccc4OC(F)F)CC3)C2=O)C(=O)N1` (stereo not shown) [Compound B4, N-(3,5-Dichloropyridin-4-yl)-4-(difluoromethoxy)-3-((9-(4-(2-(2,6-dioxo-piperidin-3-yl)-6-fluoro-1-oxoisoindolin-4-yl)piperidin-1-yl)nonyl)oxy)benzamide], the inhibition at 0.1 µM was at least 60%.

For `CC(=O)NC(=O)C(C)N1Cc2c(cc(F)cc2C2CCN(CCCCCCCCCOc3cc(C(=O)Nc4c(Cl)cncc4Cl)ccc3OC(F)F)CC2)C1=O` (stereo not shown) [Compound B13, 3-((9-(4-(2-(1-Acetamido-1-oxopropan-2-yl)-6-fluoro-1-oxoisoindolin-4-yl)piperidin-1-yl)nonyl)oxy)-N-(3,5-dichloropyridin-4-yl)-4-(difluoromethoxy)benzamide], the inhibition at 0.1 µM is at least 60% and the inhibition at 1 µM is at least 60%.

`CCOc1cc([C@@H](CS(C)(=O)=O)N2C(=O)c3cccc(NC(=O)CCCCCCCCCN4CCN(CC(=O)Nc5cccc(C6CCC(=O)NC6=O)c5)CC4)c3C2=O)ccc1OC` (stereo partly drawn) [Compound A88, 10-[4-({[3-(2,6-Dioxopiperidin-3-yl)phenyl]carbamoyl}methyl)piperazin-1-yl]-N-{2-[(1S)-1-(3-ethoxy-4-methoxyphenyl)-2-methanesulfonylethyl]-1,3-dioxo-2,3-dihydro-1H-isoindol-4-yl}decanamide]: the inhibition at 0.1 µM was at least 60% and the inhibition at 1 µM is at least 60%.

Consider `CCOc1cc([C@@H](CS(C)(=O)=O)N2C(=O)c3cccc(NC(=O)CCCCCCCN4CCN(CC(=O)Nc5cccc(C6CCC(=O)NC6=O)c5)CC4)c3C2=O)ccc1OC` (stereo partly drawn) [Compound A85, 8-[4-({[3-(2,6-Dioxopiperidin-3-yl)phenyl]carbamoyl}methyl)piperazin-1-yl]-N-{2-[(1S)-1-(3-ethoxy-4-methoxyphenyl)-2-methanesulfonylethyl]-1,3-dioxo-2,3-dihydro-1H-isoindol-4-yl}octanamide], for which the inhibition at 0.1 µM was at least 60% and the inhibition at 1 µM was at least 60%.

On to `CCOc1cc([C@@H](CS(C)(=O)=O)N2C(=O)c3cccc(NC(=O)CN4CCN(CCCCN5CCC(c6cc7c(cc6F)C(=O)N(C6CCC(=O)NC6=O)C7)CC5)CC4)c3C2=O)ccc1OC` (stereo partly drawn) [Compound A28, 2-[4-(4-{4-[2-(2,6-Dioxopiperidin-3-yl)-6-fluoro-1-oxo-2,3-dihydro-1H-isoindol-5-yl]piperidin-1-yl}butyl)piperazin-1-yl]-N-{2-[(1S)-1-(3-ethoxy-4-methoxyphenyl)-2-methanesulfonylethyl]-1,3-dioxo-2,3-dihydro-1H-isoindol-4-yl}acetamide], for which the inhibition at 0.1 µM was 40 to 60% and the inhibition at 1 µM was at least 60%.

These data come from patent US20240124418A1 (BioTheryX, Inc., priority 2020, published 2024).
